Assay results published in ChEMBL document CHEMBL1212811, “Chemical phylogenetics of histone deacetylases” (Nat Chem Biol, 2010).
Where a name gives a salt, the structure may show the parent alone. Active and inactive are the calls of the source. Peptide text beside a SMILES is read from it. * marks the point of attachment. AMC = Cc1cc(=O)oc2cc(N*)ccc12; Tfa = O=C(C(F)(F)F)*

Experiments:
[1] = molecular target: Histone deacetylase 4 (Homo sapiens) (UniProt P56524); assay: Activity of HDAC4 at 10 uM
Chain of Histone deacetylase 4 (Homo sapiens) (P56524 whole entry): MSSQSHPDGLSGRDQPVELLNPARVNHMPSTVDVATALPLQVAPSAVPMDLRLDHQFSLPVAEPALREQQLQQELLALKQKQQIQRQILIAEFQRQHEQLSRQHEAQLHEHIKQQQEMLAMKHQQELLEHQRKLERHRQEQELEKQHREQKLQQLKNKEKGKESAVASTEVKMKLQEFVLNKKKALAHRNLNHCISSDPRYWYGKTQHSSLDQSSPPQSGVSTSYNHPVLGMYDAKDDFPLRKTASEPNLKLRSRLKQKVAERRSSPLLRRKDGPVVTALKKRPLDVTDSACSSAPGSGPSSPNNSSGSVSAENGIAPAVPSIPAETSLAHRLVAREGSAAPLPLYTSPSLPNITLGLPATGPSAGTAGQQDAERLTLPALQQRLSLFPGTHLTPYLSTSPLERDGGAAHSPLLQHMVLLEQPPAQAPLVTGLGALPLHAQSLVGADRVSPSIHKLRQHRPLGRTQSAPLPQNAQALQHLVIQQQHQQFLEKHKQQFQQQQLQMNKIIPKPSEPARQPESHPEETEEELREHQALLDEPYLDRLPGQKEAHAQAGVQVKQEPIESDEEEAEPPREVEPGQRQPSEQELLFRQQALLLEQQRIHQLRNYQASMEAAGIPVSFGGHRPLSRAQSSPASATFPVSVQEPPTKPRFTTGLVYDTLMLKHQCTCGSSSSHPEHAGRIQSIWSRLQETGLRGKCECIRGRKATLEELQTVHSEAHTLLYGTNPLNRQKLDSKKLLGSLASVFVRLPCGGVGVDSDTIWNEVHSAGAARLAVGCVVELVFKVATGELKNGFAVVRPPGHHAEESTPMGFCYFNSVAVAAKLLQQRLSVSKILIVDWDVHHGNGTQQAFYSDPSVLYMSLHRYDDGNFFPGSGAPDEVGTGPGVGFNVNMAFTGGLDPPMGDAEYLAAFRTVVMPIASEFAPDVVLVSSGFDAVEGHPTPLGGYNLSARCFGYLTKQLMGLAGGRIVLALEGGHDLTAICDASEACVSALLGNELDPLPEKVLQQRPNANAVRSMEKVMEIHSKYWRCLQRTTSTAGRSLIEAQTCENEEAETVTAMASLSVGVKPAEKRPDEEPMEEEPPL

[2] = molecular target: Histone deacetylase 5 (Homo sapiens) (UniProt Q9UQL6); assay: Activity of HDAC5 at 10 uM
Chain of Histone deacetylase 5 (Homo sapiens) (Q9UQL6 whole entry): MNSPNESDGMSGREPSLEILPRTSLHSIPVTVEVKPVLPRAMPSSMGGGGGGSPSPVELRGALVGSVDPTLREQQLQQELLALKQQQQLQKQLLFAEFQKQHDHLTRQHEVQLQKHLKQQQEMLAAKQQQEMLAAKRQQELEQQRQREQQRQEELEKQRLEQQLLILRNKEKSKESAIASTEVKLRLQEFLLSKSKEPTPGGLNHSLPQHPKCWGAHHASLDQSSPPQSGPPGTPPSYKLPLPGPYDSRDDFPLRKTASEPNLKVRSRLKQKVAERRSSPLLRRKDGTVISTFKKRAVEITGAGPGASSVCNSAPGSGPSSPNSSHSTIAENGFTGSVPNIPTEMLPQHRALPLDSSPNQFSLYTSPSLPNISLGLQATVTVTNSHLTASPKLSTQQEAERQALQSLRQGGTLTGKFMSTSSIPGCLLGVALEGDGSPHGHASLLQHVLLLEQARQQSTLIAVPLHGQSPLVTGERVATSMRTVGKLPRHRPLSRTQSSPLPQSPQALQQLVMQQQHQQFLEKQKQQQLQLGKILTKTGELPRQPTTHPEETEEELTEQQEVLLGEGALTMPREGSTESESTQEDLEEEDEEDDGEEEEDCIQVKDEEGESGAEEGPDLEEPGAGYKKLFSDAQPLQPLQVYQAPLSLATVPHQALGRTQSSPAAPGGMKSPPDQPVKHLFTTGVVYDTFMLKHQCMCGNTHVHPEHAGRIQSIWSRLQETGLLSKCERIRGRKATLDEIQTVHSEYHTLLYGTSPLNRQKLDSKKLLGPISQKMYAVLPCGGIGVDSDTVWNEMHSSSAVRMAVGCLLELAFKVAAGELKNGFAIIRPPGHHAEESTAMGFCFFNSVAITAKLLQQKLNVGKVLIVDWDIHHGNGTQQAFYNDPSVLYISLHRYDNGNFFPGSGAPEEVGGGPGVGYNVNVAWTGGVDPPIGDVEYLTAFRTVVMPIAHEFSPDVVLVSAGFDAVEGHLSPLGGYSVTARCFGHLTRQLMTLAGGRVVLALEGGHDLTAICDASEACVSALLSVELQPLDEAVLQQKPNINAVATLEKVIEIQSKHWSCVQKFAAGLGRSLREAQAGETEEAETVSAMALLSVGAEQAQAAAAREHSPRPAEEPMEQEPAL

[3] = molecular target: T1, Histone deacetylase 7 (Homo sapiens) (UniProt Q8WUI4); assay: Activity of HDAC7 at 10 uM
T1 sequence (whole entry): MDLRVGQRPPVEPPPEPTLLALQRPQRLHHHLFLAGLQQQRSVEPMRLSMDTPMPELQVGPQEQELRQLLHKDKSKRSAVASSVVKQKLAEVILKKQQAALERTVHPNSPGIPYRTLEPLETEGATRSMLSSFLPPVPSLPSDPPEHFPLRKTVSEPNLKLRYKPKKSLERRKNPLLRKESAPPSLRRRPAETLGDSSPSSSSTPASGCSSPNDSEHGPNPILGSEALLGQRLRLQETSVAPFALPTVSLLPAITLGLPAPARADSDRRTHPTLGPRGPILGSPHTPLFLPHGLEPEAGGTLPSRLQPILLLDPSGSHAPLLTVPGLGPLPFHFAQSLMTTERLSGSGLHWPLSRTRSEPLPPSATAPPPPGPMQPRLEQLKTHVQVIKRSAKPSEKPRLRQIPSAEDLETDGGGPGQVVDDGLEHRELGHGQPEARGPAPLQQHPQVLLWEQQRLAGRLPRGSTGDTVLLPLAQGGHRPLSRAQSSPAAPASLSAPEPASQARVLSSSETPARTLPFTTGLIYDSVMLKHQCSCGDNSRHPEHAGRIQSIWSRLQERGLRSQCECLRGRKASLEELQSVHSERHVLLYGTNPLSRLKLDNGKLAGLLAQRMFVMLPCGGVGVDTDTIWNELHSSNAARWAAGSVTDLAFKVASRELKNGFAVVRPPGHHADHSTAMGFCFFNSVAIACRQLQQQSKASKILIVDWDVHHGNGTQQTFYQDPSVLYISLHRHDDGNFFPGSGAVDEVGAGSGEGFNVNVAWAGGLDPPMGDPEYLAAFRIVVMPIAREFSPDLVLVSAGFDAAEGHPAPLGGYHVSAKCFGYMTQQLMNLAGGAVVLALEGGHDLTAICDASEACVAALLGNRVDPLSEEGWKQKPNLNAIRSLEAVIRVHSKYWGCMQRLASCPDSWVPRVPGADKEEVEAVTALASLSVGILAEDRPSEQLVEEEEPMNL

[4] = molecular target: T2, Histone deacetylase 8 (Homo sapiens) (UniProt Q9BY41); assay: Activity of HDAC8 at 10 uM
T2 sequence (whole entry): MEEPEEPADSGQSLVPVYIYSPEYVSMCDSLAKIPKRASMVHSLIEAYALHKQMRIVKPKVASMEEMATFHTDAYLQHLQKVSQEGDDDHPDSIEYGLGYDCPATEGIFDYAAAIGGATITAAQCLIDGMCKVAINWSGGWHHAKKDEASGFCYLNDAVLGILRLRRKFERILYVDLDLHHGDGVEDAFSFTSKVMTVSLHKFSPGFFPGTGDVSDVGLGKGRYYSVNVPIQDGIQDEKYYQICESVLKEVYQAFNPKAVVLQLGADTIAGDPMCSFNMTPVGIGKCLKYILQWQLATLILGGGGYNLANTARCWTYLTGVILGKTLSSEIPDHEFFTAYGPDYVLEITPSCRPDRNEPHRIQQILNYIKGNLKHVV

[5] = molecular target: Histone deacetylase 9 (Homo sapiens) (UniProt Q9UKV0); assay: Activity of HDAC9 at 10 uM
Chain of Histone deacetylase 9 (Homo sapiens) (Q9UKV0 whole entry): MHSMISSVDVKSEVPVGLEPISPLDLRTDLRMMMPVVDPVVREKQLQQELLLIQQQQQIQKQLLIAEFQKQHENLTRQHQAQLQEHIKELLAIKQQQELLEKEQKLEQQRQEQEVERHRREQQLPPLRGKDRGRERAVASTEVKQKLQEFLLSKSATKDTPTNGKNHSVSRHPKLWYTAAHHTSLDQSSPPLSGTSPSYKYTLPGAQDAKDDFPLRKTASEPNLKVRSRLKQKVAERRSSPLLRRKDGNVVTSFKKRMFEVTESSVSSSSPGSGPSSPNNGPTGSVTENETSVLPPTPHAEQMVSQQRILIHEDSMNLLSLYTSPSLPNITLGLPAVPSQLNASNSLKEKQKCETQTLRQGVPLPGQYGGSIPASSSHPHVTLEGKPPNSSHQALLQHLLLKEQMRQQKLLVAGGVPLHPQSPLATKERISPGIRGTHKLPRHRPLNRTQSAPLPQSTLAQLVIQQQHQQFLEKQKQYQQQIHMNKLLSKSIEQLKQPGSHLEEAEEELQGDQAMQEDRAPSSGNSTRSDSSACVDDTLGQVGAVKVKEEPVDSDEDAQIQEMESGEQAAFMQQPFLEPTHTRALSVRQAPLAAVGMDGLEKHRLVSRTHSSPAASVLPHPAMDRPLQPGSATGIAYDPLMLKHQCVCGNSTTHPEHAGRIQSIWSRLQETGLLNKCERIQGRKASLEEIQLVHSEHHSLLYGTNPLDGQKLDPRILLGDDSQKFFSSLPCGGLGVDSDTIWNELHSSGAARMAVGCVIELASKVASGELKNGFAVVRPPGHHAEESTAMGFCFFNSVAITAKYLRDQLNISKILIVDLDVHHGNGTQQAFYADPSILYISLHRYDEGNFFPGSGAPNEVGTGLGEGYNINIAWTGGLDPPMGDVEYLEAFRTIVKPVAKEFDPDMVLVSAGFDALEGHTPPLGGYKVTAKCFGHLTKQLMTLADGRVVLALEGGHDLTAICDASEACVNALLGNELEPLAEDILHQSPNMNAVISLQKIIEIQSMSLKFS

[6] = molecular target: T3, Protein deacetylase HDAC6 (Homo sapiens) (UniProt Q9UBN7); assay: Inhibition of HDAC6 in human Jurkat cells assessed as hyperacetylation of alpha-tubulin after 24 hrs by immunoblot method; type: cell-based
T3 sequence (whole entry): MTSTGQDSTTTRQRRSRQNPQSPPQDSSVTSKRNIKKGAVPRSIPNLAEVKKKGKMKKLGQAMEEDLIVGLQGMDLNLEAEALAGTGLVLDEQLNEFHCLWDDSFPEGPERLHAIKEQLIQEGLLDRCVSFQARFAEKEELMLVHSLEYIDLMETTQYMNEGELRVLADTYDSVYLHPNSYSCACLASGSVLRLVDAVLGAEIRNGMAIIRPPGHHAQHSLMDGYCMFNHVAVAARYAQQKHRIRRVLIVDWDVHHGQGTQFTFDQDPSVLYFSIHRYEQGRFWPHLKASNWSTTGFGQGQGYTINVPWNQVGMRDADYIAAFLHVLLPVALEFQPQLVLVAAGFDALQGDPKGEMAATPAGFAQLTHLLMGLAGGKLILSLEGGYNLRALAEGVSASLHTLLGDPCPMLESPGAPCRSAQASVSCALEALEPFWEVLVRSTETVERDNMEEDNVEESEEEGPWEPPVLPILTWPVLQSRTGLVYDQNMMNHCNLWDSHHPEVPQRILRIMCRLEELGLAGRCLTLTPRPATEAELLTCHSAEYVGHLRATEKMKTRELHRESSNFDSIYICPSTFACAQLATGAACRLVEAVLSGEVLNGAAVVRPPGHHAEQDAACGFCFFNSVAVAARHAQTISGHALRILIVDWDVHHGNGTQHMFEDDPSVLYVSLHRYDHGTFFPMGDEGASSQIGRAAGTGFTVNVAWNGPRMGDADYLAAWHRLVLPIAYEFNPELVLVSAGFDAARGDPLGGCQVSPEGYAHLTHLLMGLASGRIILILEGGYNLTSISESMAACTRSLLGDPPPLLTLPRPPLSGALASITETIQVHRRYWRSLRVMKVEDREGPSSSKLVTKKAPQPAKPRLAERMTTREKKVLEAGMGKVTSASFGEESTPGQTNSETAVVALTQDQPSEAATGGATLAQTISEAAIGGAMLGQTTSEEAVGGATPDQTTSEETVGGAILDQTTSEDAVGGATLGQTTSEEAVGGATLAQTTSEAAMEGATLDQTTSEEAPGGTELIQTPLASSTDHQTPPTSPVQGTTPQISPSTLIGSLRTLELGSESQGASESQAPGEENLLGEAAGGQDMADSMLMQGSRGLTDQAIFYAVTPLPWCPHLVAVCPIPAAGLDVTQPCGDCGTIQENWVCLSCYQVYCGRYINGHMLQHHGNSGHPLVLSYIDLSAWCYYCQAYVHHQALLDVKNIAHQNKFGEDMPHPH

CC(=O)N[C@@H](CC(C)C)C(=O)NCC(=O)N[C@@H](CCCCNC(=O)C(F)(F)F)C(=O)Nc1ccc2c(C)cc(=O)oc2c1 (Ac-Leu-Gly-Lys(Tfa)-{AMC})
active: Activity [1] | Activity [2] | Activity [3] | Activity [4] | Activity [5]

O=C(/C=C/c1ccc(C(=O)N/N=C/c2ccc(O)c(O)c2O)cc1)NO
active: inhibition [6] Dose-dependent effect
